# Assay results reported in ChEMBL document CHEMBL2176918, “Design and optimization of pyrazinecarboxamide-based inhibitors of diacylglycerol acyltransferase 1 (DGAT1) leading to a clinical candidate dimethylpyrazinecarboxamide phenylcyclohexylacetic acid (AZD7687)” (J Med Chem, 2012).
# Tests used:
# Rattus norvegicus = assay: Inhibition of adipose triacylglycerol synthesis in 14 hrs fasted Han-Wistar rat assessed as decrease in ratio of [3H]palmitic acid incorporation in to TAG and DAG at 8 mg/kg administered orally and measured 1.5 hrs post dose relative to control
# [1] = target: cAMP and cAMP-inhibited cGMP 3',5'-cyclic phosphodiesterase 10A (Homo sapiens, UniProt Q9Y233); assay: Inhibition of PDE10A1 […]
# [2] = Clearance in Han-Wistar rat at 5.4 uM/kg, po or 2.7 uM/kg, iv; type: ADME, organism-based; conditions: in vivo
# [3] = Intrinsic clearance in dog hepatocytes assessed as parent compound disappearance at 1 uM per 10^6 cells; type: ADME, cell-based, Canis lupus familiaris, Hepatocyte; conditions: read-out: CLH
# [4] = Intrinsic clearance in mouse hepatocytes assessed as parent compound disappearance at 1 uM per 10^6 cells; type: ADME, cell-based, Hepatocyte; conditions: read-out: CLH
# [5] = Intrinsic clearance in human hepatocytes assessed as parent compound disappearance at 1 uM per 10^6 cells; type: ADME, cell-based, Hepatocyte; conditions: read-out: CLH
# Cytochrome P450 2C9 = Cytochrome P450 2C9 (Homo sapiens, UniProt P11712); assay: Inhibition of CYP2C9; type: ADME
# [6] = target: Voltage-gated inwardly rectifying potassium channel KCNH2 (Homo sapiens, UniProt Q12809); assay: Inhibition of human ERG
# [7] = Fraction unbound in mouse plasma; type: ADME, cell-free
# O-acyltransferase = target: T1, O-acyltransferase (Canis lupus familiaris, UniProt A0A8I3N393); assay: Inhibition of DGAT1 in dog liver microsomes; parameters: species or system Microsome
# T1 sequence (A0A8I3N393 whole entry): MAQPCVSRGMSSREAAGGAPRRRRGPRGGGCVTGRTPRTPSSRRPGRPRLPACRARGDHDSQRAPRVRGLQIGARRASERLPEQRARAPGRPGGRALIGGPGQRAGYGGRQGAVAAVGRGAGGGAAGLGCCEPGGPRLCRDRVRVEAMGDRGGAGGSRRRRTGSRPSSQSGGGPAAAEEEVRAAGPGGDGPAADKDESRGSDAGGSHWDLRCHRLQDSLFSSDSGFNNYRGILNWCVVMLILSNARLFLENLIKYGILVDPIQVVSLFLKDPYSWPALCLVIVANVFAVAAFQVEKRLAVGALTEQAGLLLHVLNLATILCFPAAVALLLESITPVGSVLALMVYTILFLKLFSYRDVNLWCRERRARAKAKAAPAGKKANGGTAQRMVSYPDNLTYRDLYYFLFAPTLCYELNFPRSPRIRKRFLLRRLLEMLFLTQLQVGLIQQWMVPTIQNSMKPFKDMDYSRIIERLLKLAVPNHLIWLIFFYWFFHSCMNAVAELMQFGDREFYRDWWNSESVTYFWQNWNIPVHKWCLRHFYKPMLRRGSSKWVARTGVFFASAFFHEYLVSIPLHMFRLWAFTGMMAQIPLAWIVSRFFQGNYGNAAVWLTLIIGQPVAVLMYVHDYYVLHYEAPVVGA
# [8] = target: T2, Sterol O-acyltransferase 2 (Homo sapiens, UniProt O75908); assay: Inhibition of human ACAT2 by liquid scintillography
# T2 sequence (O75908 whole entry): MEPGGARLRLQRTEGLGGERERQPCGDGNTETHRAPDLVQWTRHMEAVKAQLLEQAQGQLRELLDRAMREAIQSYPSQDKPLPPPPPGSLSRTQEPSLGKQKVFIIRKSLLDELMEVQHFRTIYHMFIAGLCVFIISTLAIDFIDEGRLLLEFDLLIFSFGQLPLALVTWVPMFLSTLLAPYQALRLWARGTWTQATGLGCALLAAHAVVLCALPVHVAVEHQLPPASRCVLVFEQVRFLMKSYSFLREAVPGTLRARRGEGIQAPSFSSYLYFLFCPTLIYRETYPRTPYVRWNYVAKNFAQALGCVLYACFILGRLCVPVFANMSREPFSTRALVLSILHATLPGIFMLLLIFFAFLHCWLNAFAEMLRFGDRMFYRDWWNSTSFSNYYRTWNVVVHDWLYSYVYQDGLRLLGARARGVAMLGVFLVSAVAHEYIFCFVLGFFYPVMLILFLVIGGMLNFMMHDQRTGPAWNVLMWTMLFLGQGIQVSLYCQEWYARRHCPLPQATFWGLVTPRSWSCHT
# [9] = target: T3, Diacylglycerol O-acyltransferase 1 (Homo sapiens, UniProt O75907); assay: Inhibition of DGAT1 in human HuTu80 cells; type: cell-based
# T3 sequence (O75907 whole entry): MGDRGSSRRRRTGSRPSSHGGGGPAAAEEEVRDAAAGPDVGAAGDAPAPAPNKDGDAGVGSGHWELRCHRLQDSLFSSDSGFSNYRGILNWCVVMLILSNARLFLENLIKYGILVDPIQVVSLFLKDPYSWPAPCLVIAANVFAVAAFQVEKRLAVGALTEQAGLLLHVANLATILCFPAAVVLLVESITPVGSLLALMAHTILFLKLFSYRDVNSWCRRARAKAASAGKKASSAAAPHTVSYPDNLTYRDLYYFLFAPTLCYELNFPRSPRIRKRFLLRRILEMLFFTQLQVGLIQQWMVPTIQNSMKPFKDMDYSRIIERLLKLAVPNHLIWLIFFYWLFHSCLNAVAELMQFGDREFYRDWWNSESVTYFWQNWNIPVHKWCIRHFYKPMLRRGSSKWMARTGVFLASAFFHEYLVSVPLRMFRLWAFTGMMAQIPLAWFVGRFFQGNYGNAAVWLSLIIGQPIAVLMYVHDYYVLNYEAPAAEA
# [10] = target: T3, Diacylglycerol O-acyltransferase 1; assay: Inhibition of DGAT1 in human adipose tissue assessed as reduction in triacylglycerol synthesis
# [11] = Apparent permeability from apical to basolateral side in MDCK cells at pH 7.4; conditions: dog
# [12] = Intrinsic clearance in rat hepatocytes assessed as parent compound disappearance at 1 uM per 10^6 cells; type: ADME, cell-based, Hepatocyte; conditions: read-out: CLH
# [13] = Fraction unbound in human plasma at 37 degC by LC-UV/MS method based equilibrium dialysis method
# [14] = Volume of distribution in C57BL/6 mouse at 8.16 uM/kg, po or 5.4 uM/kg, iv; type: ADME, organism-based; conditions: in vivo
# [15] = Octanol/water partition coefficient, log D of the compound at pH 7.4; type: physicochemical
# [16] = Clearance in C57BL/6 mouse at 8.16 uM/kg, po or 5.4 uM/kg, iv; type: ADME, organism-based; conditions: in vivo
# Voltage-gated inwardly rectifying potassium channel KCNH2, sequence (Q12809 whole entry): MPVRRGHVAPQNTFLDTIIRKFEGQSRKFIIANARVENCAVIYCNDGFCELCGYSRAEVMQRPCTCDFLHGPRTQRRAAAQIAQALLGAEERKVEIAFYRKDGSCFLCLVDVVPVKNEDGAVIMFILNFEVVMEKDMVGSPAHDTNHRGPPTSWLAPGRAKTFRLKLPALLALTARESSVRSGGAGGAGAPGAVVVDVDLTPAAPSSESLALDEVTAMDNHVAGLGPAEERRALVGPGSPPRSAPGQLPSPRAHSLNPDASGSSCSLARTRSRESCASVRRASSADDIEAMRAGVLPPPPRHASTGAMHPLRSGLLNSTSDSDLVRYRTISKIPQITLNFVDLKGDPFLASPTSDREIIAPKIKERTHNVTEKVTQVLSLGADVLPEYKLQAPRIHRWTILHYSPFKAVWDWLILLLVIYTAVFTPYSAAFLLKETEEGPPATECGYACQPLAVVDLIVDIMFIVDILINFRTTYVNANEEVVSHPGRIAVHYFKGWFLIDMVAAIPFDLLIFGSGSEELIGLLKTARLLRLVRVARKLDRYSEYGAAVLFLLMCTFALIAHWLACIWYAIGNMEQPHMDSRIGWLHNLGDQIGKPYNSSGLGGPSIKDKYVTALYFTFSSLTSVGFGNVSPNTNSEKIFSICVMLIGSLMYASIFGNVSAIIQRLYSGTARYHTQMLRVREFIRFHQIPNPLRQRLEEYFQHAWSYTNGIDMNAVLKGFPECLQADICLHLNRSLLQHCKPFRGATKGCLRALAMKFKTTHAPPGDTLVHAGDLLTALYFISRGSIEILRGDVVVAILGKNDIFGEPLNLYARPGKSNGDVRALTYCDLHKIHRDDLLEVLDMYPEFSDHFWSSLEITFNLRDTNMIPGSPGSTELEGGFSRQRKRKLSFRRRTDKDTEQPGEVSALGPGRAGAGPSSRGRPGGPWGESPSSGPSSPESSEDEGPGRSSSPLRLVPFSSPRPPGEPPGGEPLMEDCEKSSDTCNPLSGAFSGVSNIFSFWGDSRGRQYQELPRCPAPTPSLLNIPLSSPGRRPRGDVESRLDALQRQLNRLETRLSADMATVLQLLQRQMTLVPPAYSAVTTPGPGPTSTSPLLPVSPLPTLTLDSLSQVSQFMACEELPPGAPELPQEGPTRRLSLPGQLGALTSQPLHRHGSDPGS
# cAMP and cAMP-inhibited cGMP 3',5'-cyclic phosphodiesterase 10A, sequence (Q9Y233 whole entry): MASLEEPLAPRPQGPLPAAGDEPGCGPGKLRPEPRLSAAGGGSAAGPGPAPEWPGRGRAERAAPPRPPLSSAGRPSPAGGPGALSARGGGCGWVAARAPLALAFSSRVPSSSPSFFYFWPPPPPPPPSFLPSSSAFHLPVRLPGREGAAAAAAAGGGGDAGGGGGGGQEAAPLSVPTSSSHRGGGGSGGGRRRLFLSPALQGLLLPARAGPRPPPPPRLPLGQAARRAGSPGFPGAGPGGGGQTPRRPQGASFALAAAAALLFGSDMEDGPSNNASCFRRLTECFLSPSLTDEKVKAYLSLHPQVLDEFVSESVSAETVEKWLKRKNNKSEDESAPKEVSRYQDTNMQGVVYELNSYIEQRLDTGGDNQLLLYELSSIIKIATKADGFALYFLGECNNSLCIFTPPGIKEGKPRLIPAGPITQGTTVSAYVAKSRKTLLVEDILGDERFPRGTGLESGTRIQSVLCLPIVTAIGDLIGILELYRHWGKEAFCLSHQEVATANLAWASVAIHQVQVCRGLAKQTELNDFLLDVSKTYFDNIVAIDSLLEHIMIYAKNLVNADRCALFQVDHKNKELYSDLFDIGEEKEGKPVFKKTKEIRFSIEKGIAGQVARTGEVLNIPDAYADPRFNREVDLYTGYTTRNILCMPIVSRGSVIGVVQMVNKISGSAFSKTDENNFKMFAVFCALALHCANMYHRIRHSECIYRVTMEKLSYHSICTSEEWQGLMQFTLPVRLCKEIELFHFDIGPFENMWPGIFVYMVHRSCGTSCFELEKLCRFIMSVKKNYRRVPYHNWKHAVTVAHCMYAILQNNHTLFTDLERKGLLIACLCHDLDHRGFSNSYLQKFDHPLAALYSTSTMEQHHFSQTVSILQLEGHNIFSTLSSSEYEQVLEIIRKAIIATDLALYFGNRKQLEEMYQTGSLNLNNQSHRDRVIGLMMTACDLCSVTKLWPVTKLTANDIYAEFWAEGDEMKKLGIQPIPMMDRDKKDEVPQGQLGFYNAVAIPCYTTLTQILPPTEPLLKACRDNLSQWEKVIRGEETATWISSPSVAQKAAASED
# Cytochrome P450 2C9, sequence (P11712 whole entry): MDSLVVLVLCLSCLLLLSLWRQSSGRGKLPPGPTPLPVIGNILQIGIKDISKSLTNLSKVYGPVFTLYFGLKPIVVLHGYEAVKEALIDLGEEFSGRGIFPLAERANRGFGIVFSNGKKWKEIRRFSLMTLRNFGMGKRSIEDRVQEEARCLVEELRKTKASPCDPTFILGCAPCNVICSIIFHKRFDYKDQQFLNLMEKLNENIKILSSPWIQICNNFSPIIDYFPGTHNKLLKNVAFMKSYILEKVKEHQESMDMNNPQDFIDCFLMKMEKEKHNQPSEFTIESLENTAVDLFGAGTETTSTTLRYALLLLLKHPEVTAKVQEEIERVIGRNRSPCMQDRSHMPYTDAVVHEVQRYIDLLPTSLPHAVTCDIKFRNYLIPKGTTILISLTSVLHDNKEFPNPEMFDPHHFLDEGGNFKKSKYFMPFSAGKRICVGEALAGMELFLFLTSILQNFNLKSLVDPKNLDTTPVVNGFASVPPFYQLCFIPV
smiles,measurement,setting,value
Cc1nc(C)c(-c2ccc(C3CCC(CC(=O)O)CC3)cc2)nc1C(N)=O (centres undefined) [AZD-7687],IC50,Rattus norvegicus,132 nM
same,IC50,[1],5500 nM
same,clearance,[2],0.5 mL/min/kg
same,hepatocyte CLint at 1 µM,[3],5.5 µL/min/1e6 cells
same,hepatocyte CLint at 1 µM,[4],7.3 µL/min/1e6 cells
same,hepatocyte CLint at 1 µM,[5],< 2 µL/min/1e6 cells
same,IC50,Cytochrome P450 2C9,> 30000 nM
same,IC50,[6],> 32000 nM
same,fraction unbound,[7],0.1
same,IC50,O-acyltransferase,60 nM
same,IC50,[8],> 10000 nM
same,IC50,[9],10 nM
same,IC50,[10],10 nM
same,Papp A→B,[11],12 ×10⁻⁶ cm/s
same,hepatocyte CLint at 1 µM,[12],< 2 µL/min/1e6 cells
same,fraction unbound,[13],0.047
same,Vd,[14],0.9 L/kg
same,logD,[15],0.9
same,clearance,[16],0.77 mL/min/kg
